Test results published in US20250353819A1, “ARYL HYDANTOIN COMPOUNDS AND METHODS OF USE” (priority 2022, published 2025).
Like-named read-outs stand apart in the source and are kept apart here.

Experiments:
[1] = Mouse exposure / pharmacokinetic studies; format: in vivo, mice; settings: for AUC(0-t): read-out: Plasma AUC0-48 h
[2] = In vitro metabolic stability, mouse liver microsomes; format: in vitro ADME; settings: mouse liver microsomes; read-out: m CLint
Description: (§1) In Vitro Metabolic Stability. As described by Charman et al. (2020), metabolic stability assays were performed by incubating test compounds in liver microsomes at 37° C. and 0.4 mg/mL protein concentration. The metabolic reaction was initiated by the addition of an NADPH-regenerating system and quenched at various time points over a 60 min incubation period by the addition of acetonitrile containing diazepam as internal standard. Control samples (containing no NADPH) were included (and quenched at 2, 30 and 60 min) to monitor for potential degradation in the absence of cofactor.

[3] = In vitro metabolic stability, rat microsomes; format: in vitro ADME; settings: liver microsomes
Description: as §1

Photostability = format: physicochemical; settings: 500 μg/mL in 50% aq. MeOH, simulated confirmatory and forced degradation sunlight conditions
Description: MeOH also was evaluated under simulated confirmatory and forced degradation sunlight conditions.

adult S. mansoni = assay: ex vivo exposure of adult S. mansoni; set-up: species or system Schistosoma mansoni; settings: S. mansoni worms exposed ex vivo
Source text: Without wishing to be bound to any particular theory, it is believed that the activity of the disclosed compounds is mediated at least in part by a host effect.

[4] = Stability in human cryopreserved hepatocytes; format: in vitro ADME
[5] = Whole blood-to-plasma ratio, mouse
S. japonicum = S. japonicum infections in hamsters; format: in vivo
CYP 2C9 = CYP 2C9 (Homo sapiens (Human), UniProt P11712); assay: CYP inhibition in human liver microsomes, 2C9
S. haematobium = S. haematobium infections in hamsters; format: in vivo; settings: single 50 mg/kg oral dose
androgen-receptor = assay: DHT-induced (KLK3, FKBP5) and DHT-repressed (ZFP36L1) transcripts in LAPC4 cells; format: cell-based; settings: Compound IE up to 10 μM
[6] = male, Swiss outbred, mouse, in vivo, mice, oral, mean dose 6.73 mg/kg
[7] = male, Swiss outbred, mouse, in vivo, mice, oral, mean dose 13.5 mg/kg
[8] = male, Swiss outbred, mouse, in vivo, mice, oral, mean dose 26.3 mg/kg
[9] = male, Swiss outbred, mouse, in vivo, mice, oral, mean dose 55.6 mg/kg
[10] = male, Swiss outbred, mouse, in vivo, mice, oral, mean dose 99.7 mg/kg
[11] = mice, oral, mean dose 6.73 mg/kg
[12] = mice, oral, mean dose 13.5 mg/kg
[13] = mice, oral, mean dose 26.3 mg/kg
[14] = mice, oral, mean dose 55.6 mg/kg
[15] = mice, oral, mean dose 99.7 mg/kg

Chain of CYP 2C9 (P11712 whole entry): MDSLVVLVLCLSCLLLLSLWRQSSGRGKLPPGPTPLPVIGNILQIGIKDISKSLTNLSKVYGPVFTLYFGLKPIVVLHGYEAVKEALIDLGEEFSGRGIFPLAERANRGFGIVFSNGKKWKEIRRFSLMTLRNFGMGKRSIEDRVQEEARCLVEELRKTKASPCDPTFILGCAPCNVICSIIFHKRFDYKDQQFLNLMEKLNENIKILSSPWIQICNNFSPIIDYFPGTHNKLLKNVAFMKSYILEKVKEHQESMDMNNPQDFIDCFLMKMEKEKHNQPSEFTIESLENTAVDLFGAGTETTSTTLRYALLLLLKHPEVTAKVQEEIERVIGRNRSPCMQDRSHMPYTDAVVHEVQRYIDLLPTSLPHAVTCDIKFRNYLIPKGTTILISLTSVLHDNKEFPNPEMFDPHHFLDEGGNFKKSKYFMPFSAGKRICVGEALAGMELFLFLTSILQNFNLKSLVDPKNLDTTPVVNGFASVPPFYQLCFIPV

## [2H]C([2H])([2H])C1(C([2H])([2H])[2H])NC(=O)N(c2ccc(F)c(C(C)(F)F)c2)C1=O [Compound IE, 3-(3-(1,1-difluoroethyl)-4-fluorophenyl)-5,5-bis(methyl-d3)imidazolidine-2,4-dione]
[1]; male, Swiss outbred, mouse, in vivo, 100 mg/kg PO in mice, read-out: Cmax
  Cmax: 41000 ng/mL
[1]; male, Swiss outbred, mouse, in vivo, IV 1 mg/kg, mice, read-out: volume of distribution
  Vd: 1.59 L/kg
[1]; male, Swiss outbred, mouse, in vivo, mice, IV, mean dose 1.0 mg/kg
  AUC(0-t): 28.2 µg·h/mL
[1]; male, Swiss outbred, mouse, in vivo, mice, IV, mean dose 1.0 mg/kg, read-out: Plasma AUC0-inf
  AUC(0-inf): 33.9 µg·h/mL
[1]; [6]
  Tmax: 3 h
  AUC(0-t): 145 µg·h/mL
[1]; male, Swiss outbred, mouse, in vivo, mice, oral, mean dose 6.73 mg/kg, read-out: Plasma Cmax
  Cmax: 3760 ng/mL
[1]; [7]
  Tmax: 7 h
  AUC(0-t): 320 µg·h/mL
[1]; male, Swiss outbred, mouse, in vivo, mice, oral, mean dose 13.5 mg/kg, read-out: Plasma Cmax
  Cmax: 8590 ng/mL
[1]; [8]
  Tmax: 7 h
  AUC(0-t): 607 µg·h/mL
[1]; male, Swiss outbred, mouse, in vivo, mice, oral, mean dose 26.3 mg/kg, read-out: Plasma Cmax
  Cmax: 14400 ng/mL
[1]; [9]
  Tmax: 3 h
  AUC(0-t): 1130 µg·h/mL
[1]; male, Swiss outbred, mouse, in vivo, mice, oral, mean dose 55.6 mg/kg, read-out: Plasma Cmax
  Cmax: 28200 ng/mL
[1]; [10]
  Tmax: 7 h
  AUC(0-t): 1800 µg·h/mL
[1]; male, Swiss outbred, mouse, in vivo, mice, oral, mean dose 99.7 mg/kg, read-out: Plasma Cmax
  Cmax: 40500 ng/mL
[1]; mice, IV, mean dose 1.0 mg/kg
  PlasmaVSS: 1.6 L/kg
[1]; [11]
  Apparent BA: 76%
  Plasma AUC0-48 h/Dose: 21.5 (μg*h/mL)/(mg/kg)
  Plasma Cmax/Dose: 0.559 (μg/mL)/(mg/kg)
[1]; [12]
  Apparent BA: 84%
  Plasma AUC0-48 h/Dose: 23.8 (μg*h/mL)/(mg/kg)
  Plasma Cmax/Dose: 0.638 (μg/mL)/(mg/kg)
[1]; [13]
  Apparent BA: 82%
  Plasma AUC0-48 h/Dose: 23.1 (μg*h/mL)/(mg/kg)
  Plasma Cmax/Dose: 0.547 (μg/mL)/(mg/kg)
[1]; [14]
  Apparent BA: 72%
  Plasma AUC0-48 h/Dose: 20.4 (μg*h/mL)/(mg/kg)
  Plasma Cmax/Dose: 0.507 (μg/mL)/(mg/kg)
[1]; [15]
  Apparent BA: 64%
  Plasma AUC0-48 h/Dose: 18.0 (μg*h/mL)/(mg/kg)
  Plasma Cmax/Dose: 0.407 (μg/mL)/(mg/kg)
[2]
  microsomal CLint: < 7 µL/min/mg
[3]
  microsomal CLint: < 7 µL/min/mg
Photostability
  loss of parent compound (photostability): < 3%
Adult S. mansoni
  changes via transcriptomic and ultraresolution microscopy: no significant changes
[4]
  CLint: <2 μL/min/10^6
[4]; read-out: in vitro CLint
  hepatocyte CLint: < 2000 µL/min/1e6 cells
[5]
  B:P: 1.0
S. japonicum; Schistosoma japonicum, oral
  ED50: 8.5 mg/kg
S. japonicum; single 25 mg/kg oral dose
  clearance of S. japonicum infections: completely cleared
CYP 2C9; CYP 2C9, concentrations up to 20 μM, human liver microsomes
  CYP inhibition: did not inhibit
CYP 2C9; read-out: CYP inhibition IC50, 2C9
  IC50: > 20 µM
S. haematobium
  clearance of S. haematobium infections: completely cleared
androgen-receptor
  levels of DHT-induced (KLK3, FKBP5) and DHT-repressed (ZFP36L1) transcripts: no effect
